Assay results: patent publication US11998767B2, “Hand sanitizers with improved aesthetics and skin-conditioning to encourage compliance with hand hygiene guidelines” (GOJO Industries, Inc., priority 2014, dated 2024)

How the values were obtained:
[1] = test system: ABCA12; test: Skin barrier biomarker gene expression, real-time RT-PCR, keratinocyte monolayer; format: cell-based, human; details: gene expression level, keratinocytes treated 24 hours; Control C KGM 100%; concentration differs per example
Experimental: (§1) An in vitro model was employed, using monolayer human dermal keratinocytes culture (KGM). Two controls were tested: the medium and inflammatory cytokines interleukin (IL-1b).
(§2) Skin Barrier: • Biomarkers: ABCA12, Involucrin, PPARδ • Using different concentration of ingredients to treat the keratinocyte for 24 hours • Collect the cells and prepare total RNA from the treated cells • Using Real-time RT-PCT to detect different barrier function related biomarker's gene expression level • Comparative Benchmark: Vitamin D3 (cholecalciferol) in three different concentrations
ABCA12 is also known as ATP-binding cassette transporter 12. It is a protein that in humans is encoded by the ABCA12 gene. The ABCA12 gene is active in some types of skin cells. The ABCA12 protein appears to be essential for normal development of the skin, which provides a barrier between the body and its surrounding environment. It plays an important role in transporting lipids (free fat acids) in cells that make up the outermost layer of skin (the epidermis). Generally, the higher expression, the better skin barrier function is.

[2] = test system: Involucrin; test: as above; format: cell-based, human; details: gene expression level, keratinocytes treated 24 hours; Control C KGM 100%; concentration differs per example
Experimental: as §1, §2
Involucrin is a protein component of human skin. It's a biomarker for keratinocyte differentiation. In binding the protein loricrin, involucrin contributes to the formation of a cell envelope that protects corneocytes in the skin stratum corneum. The higher expression, the better skin barrier function is.

[3] = test system: PPARδ; test: as above; format: cell-based, human; details: gene expression level, keratinocytes treated 24 hours; Control C KGM 100%; concentration differs per example
Experimental: as §1, §2
PPARδ is Peroxisome proliferator-activated receptor, also known as NR1C2. It is a nuclear receptor that in humans is encoded by the PPARD gene. […] Generally, the higher expression, the better skin barrier function is.

[4] = test system: IL-8; test: IL-8 ELISA, PMA-induced IL-8 in human dermal keratinocytes; format: cell-based; details: niacinamide in cell culture medium, co-treated with PMA; amount (wt. %) differs per example; Control A medium 100%, Control B PMA 0.0%
Description: Interleukin 8 (IL-8) is a chemokine and proinflammatory cytokine produced by macrophages and other cell types such as epithelial cells. It is secreted from keratinocytes in skin in response to inflammatory stimuli. IL-8 is secreted and is an important mediator of the immune reaction in the innate immune system response. IL-8 overexpressed is a biomarker of skin irritation. […] No irritation is expected, and therefore Control A provides a baseline. […] Decreased 11-8 expression reflects the ingredient's anti-irritation activity. In order to carry out the test method, an assay kit was employed that was obtained from R&D Systems: Human CXCL8/IL-8 Duoset ELISA Development Kit. The following steps were followed: 1. Coat EIA high binding 96-well plate with IL-8 capture antibody overnight at room temperature. 2. Prepare all reagents, standard dilutions, and samples. 3. Wash the coated plate with 350 μL/well of washing buffer 4 times, then adding 300 μL/well of blocking solution incubating 1 hour at room temperature. 4. Repeat washing step with 350 μL/well of wash buffer (4 times). 5. Add 100 μL, of Standard, control, or sample to each well. Cover with a plate sealer, and incubate at room temperature for 2 hours. 6. Aspirate each well and wash, repeating the process 3 times for a total of 4 washes. 7. Add 100 μL, of detection IL-8 antibody to each well. Cover with a new plate sealer, and incubate at room temperature for 2 hours. 8. Aspirate and wash 4 times. 9. Add 100 μL, Biotin-Strepavidin conjugate to each well, incubating 20 minutes at room temperature. 10. Aspirate and wash 4 times. 11. Add 100 μL, substrate Solution to each well. Incubate at room temperature for 20 minutes, making sure to protect the wells from the light. 12. Add 50 μL, of Stop Solution to each well. Data collected—using a colorimeter, absorbance was measured at 450 nanometers (nm) within 30 minutes. Wavelength correction was set to 570 nm.

[5] = test system: human dermal keratinocytes; test: MTT assay, cell viability of PMA-treated keratinocytes; format: cell-based; details: co-treated with PMA, amount (wt. %) differs per example, Control A medium 100%
Description: The MTT assay is a colorimetric assay for assessing cell viability, cell proliferation, and/or cytotoxicity. NAD(P)H-dependent cellular oxidoreductase enzymes may, under defined conditions, reflect the number of viable cells present. These enzymes are capable of reducing the tetrazolium dye MTT 3-(4,5-dimethylthiazol-2-yl)-2,5-diphenyltetrazolium bromide to insoluble formazan, which has a purple color. MTT assay can also be used to measure cytotoxicity (loss of viable cells) or cytostatic activity (shift from proliferative to resting status) of potential medicinal agents and toxic materials.
Controls A and B described above for the IL-8 Assay were also employed in this test. The mitigating effect of the test samples on the effect of Control B on the keratinocytes was measured. More specifically, while Control B has a negative effect on cell viability, cell proliferation, and/or cytotoxicity, this mitigation of this negative effect was determined by measuring the reduction of MTT.
The following steps were followed: Once the liquid was removed from the wells for the IL-8 Assay described above, 100 μl/well of 0.5 mg/ml of MTT in phenol red-free DMEM (cell culture medium) was added into each of the 96-well plates. After incubating 1 hour at 37° C., all liquid was removed (MTT solution) from the wells of the culture plate. Then 100 μl of DMSO was added to each well to completely dissolve the purple product. Absorption was measured using a plate reader at 550 nm wavelength.

[6] = test system: TNF-α; test: TNF-α ELISA, as IL-8 method, PMA-treated human dermal keratinocytes; format: cell-based; details: niacinamide in cell culture medium, co-treated with PMA; amount (wt. %) differs per example; Control A medium 100%, Control B PMA 0.0%
Description: For Control A, human dermal keratinocytes are left untreated. No irritation is expected, and therefore Control A provides a baseline. For Control B, IL-8 is induced in human dermal keratinocytes by applying phorbol 12-myristate 13-acetate (PMA). For all other samples, the human dermal keratinocytes are co-treated with PMA and a composition containing the ingredient of interest. Decreased 11-8 expression reflects the ingredient's anti-irritation activity.
The following steps were followed: 1. Coat EIA high binding 96-well plate with IL-8 capture antibody overnight at room temperature. 2. Prepare all reagents, standard dilutions, and samples. 3. Wash the coated plate with 350 μL/well of washing buffer 4 times, then adding 300 μL/well of blocking solution incubating 1 hour at room temperature. 4. Repeat washing step with 350 μL/well of wash buffer (4 times). 5. Add 100 μL, of Standard, control, or sample to each well. Cover with a plate sealer, and incubate at room temperature for 2 hours. 6. Aspirate each well and wash, repeating the process 3 times for a total of 4 washes. 7. Add 100 μL, of detection IL-8 antibody to each well. Cover with a new plate sealer, and incubate at room temperature for 2 hours. 8. Aspirate and wash 4 times. 9. Add 100 μL, Biotin-Strepavidin conjugate to each well, incubating 20 minutes at room temperature. 10. Aspirate and wash 4 times. 11. Add 100 μL, substrate Solution to each well. Incubate at room temperature for 20 minutes, making sure to protect the wells from the light. 12. Add 50 μL, of Stop Solution to each well. Data collected—using a colorimeter, absorbance was measured at 450 nanometers (nm) within 30 minutes. Wavelength correction was set to 570 nm.
Samples were tested similarly to the method described above, except that TNF-α was used instead of IL-8.

Row | Compound | ABCA12 (%) [1] [%] | Involucrin [2] [%] | PPARδ [3] [%] | other results
1 | NC(=O)c1cccnc1 [Example 35, Niacinamide] | 192 | 441 | 136 | –
2 | C=C1CC[C@H](O)C/C1=C/C=C1\CCC[C@]2(C)[C@@H]([C@H](C)CCCC(C)C)CC[C@@H]12 [Comparative 2, Vitamin D3 (cholecalciferol), reference compound] | 45 | 208 | 334 | –
3 | NC(=O)c1cccnc1 [Example 17, Niacinamide] | – | – | – | IL-8 Inhibition (%) [4]: 16.53%
4 | NC(=O)c1cccnc1 [Example 29, Niacinamide] | – | – | – | Cell Viability (%) ([5]; niacinamide series): 97%
5 | NC(=O)c1cccnc1 [Example 34, Niacinamide] | 120 | 192 | 88 | –
6 | NC(=O)c1cccnc1 [Example 27, Niacinamide] | – | – | – | TNF-α Inhibition (%) [6]: 45.1%
7 | NC(=O)c1cccnc1 [Example 25, Niacinamide] | – | – | – | TNF-α Inhibition (%) [6]: 28.6%
8 | NC(=O)c1cccnc1 [Example 20, Niacinamide] | – | – | – | IL-8 Inhibition (%) [4]: 28.85%
9 | NC(=O)c1cccnc1 [Example 31, Niacinamide] | – | – | – | Cell Viability (%) ([5]; niacinamide series): 99%
10 | NC(=O)c1cccnc1 [Example 30, Niacinamide] | – | – | – | Cell Viability (%) ([5]; niacinamide series): 95%
11 | NC(=O)c1cccnc1 [Example 19, Niacinamide] | – | – | – | IL-8 Inhibition (%) [4]: 20.86%
12 | NC(=O)c1cccnc1 [Example 33, Niacinamide] | 41 | 156 | 82 | –
13 | CCCCCCCCCCCCCC(=O)O[C@@H]1[C@@H](C)[C@@]2(O)[C@@H](C=C(CO)C[C@]3(O)C(=O)C(C)=C[C@@H]23)[C@@H]2C(C)(C)[C@]12OC(C)=O [Control B, phorbol 12-myristate 13-acetate, reference compound] | – | – | – | Cell Viability (%) ([5]; avenanthramide series): 95%; Cell Viability (%) ([5]; niacinamide series): 95%
14 | NC(=O)c1cccnc1 [Example 16, Niacinamide] | – | – | – | IL-8 Inhibition (%) [4]: 0.0%
15 | NC(=O)c1cccnc1 [Example 18, Niacinamide] | – | – | – | IL-8 Inhibition (%) [4]: 16.64%
16 | NC(=O)c1cccnc1 [Example 22, Niacinamide] | – | – | – | IL-8 Inhibition (%) [4]: 32.04%
17 | NC(=O)c1cccnc1 [Example 32, Niacinamide] | – | – | – | Cell Viability (%) ([5]; niacinamide series): 87%
18 | NC(=O)c1cccnc1 [Example 28, Niacinamide] | – | – | – | TNF-α Inhibition (%) [6]: 52.7%
19 | NC(=O)c1cccnc1 [Example 37, Niacinamide] | 447 | 1589 | 378 | –
20 | NC(=O)c1cccnc1 [Example 38, Niacinamide] | 499 | 1656 | 863 | –
21 | C=C1CC[C@H](O)C/C1=C/C=C1\CCC[C@]2(C)[C@@H]([C@H](C)CCCC(C)C)CC[C@@H]12 [Comparative 1, Vitamin D3 (cholecalciferol), reference compound] | 58 | 384 | 752 | –
22 | C=C1CC[C@H](O)C/C1=C/C=C1\CCC[C@]2(C)[C@@H]([C@H](C)CCCC(C)C)CC[C@@H]12 [Comparative 3, Vitamin D3 (cholecalciferol), reference compound] | 42 | 406 | 238 | –
23 | NC(=O)c1cccnc1 [Example 21, Niacinamide] | – | – | – | IL-8 Inhibition (%) [4]: 33.20%
24 | NC(=O)c1cccnc1 [Example 36, Niacinamide] | 806 | 817 | 164 | –
25 | NC(=O)c1cccnc1 [Example 26, Niacinamide] | – | – | – | TNF-α Inhibition (%) [6]: 45.6%
26 | NC(=O)c1cccnc1 [Example 24, Niacinamide] | – | – | – | TNF-α Inhibition (%) [6]: 29.6%
27 | NC(=O)c1cccnc1 [Example 23, Niacinamide] | – | – | – | TNF-α Inhibition (%) [6]: 28.2%
